The values that follow come from patent publication US20250206732A1, “COMPOUNDS AND METHODS FOR THE TARGETED DEGRADATION OF KRAS” (Arvinas Operations, Inc., priority 2022, published 2025).

Bounds are passed on as bounds.

This experiment has as its target T1, AsPC-1 HiBiT-KRASG12D (Homo sapiens, UniProt P01116, G12D).
T1 construct: insert the HiBiT tag onto the N-terminus of one or more of the endogenous KRAS alleles; endogenous in cells; host or cells: AsPC-1 (ATCC CRL-1682), CRISPR-Cas9 knock-in clone, one tagged allele
Nature of the experiment: HiBiT degradation assay (G12D), AsPC-1 HiBiT-KRASG12D cells. The format is cell-based. Particulars: 24 hours treatment; for Dmax: ASPC1, AsPC-1 HiBiT-KRASG12D cells, maximum degradation observed; for DC50: AsPC-1 HiBiT-KRASG12D cells, HiBiT luminescence. The method in brief:
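24 h cmpd treatment, 37° C/5% CO2, AsPC-1 HiBiT-KRASG12D clone (CRISPR N-term tag). Alamar blue 1×, 4 h, fluorescence. PBS wash, Nano-Glo HiBiT lytic reagent, 45 min RT, luminescence. Triplicates.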
For orientation: The HiBiT peptide binds its large partner to form an active luciferase.

T1 sequence (P01116 1-188 isoform P01116-2 G12D): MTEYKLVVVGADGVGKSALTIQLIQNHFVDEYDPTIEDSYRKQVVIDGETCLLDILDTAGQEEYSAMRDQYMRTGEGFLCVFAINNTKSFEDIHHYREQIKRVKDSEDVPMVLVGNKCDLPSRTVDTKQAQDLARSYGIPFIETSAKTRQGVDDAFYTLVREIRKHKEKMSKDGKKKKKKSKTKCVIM

What is called Dmax is the greatest extent of degradation seen. Read a low Dmax as a partial loss of target. One may read the DC50 as the concentration at which degradation of the target reaches its halfway point. A higher DC50 goes with a less potent degrader. The compound `CCc1cccc2cc(O)cc(-c3ncc4c(N5CC6CCC(C5)N6)nc(OCCN5CCC(N(C)c6cc([C@@H](C(=O)N7C[C@H](O)C[C@H]7C(=O)N[C@@H](C)c7ccc(-c8scnc8C)cc7)C(C)C)on6)CC5)nc4c3F)c12` (relative stereo) [Compound 137, (2S,4R)-1-[(2R*)-2-{3-[(1-{2-[(4-{3,8-diazabicyclo[3.2.1]octan-3-yl}-7-(8-ethyl-3-hydroxynaphthalen-1-yl)-8-fluoropyrido[4,3-d]pyrimidin-2-yl)oxy]ethyl}piperidin-4-yl)(methyl)amino]-1,2-oxazol-5-yl}-3-methylbutanoyl]-4-hydroxy-N-[(1S)-1-[4-(4-methyl-1,3-thiazol-5-yl)phenyl]ethyl]pyrrolidine-2-carboxamide] gave a Dmax of 20 to 60% and a 50% degradation concentration (DC50) of 1000 to 3000 nM.

Take `CCc1cccc2cc(O)cc(-c3ncc4c(N5CC6CCC(C5)N6)nc(OCCN5CCC(Oc6cc([C@H](C(=O)N7C[C@H](O)C[C@H]7C(=O)N[C@@H](C)c7ccc(-c8scnc8C)cc7)C(C)C)on6)CC5)nc4c3F)c12` (relative stereo) [Compound 138, (2S,4R)-1-[(2R*)-2-{3-[(1-{2-[(4-{3,8-diazabicyclo[3.2.1]octan-3-yl}-7-(8-ethyl-3-hydroxynaphthalen-1-yl)-8-fluoropyrido[4,3-d]pyrimidin-2-yl)oxy]ethyl}piperidin-4-yl)oxy]-1,2-oxazol-5-yl}-3-methylbutanoyl]-4-hydroxy-N-[(1S)-1-[4-(4-methyl-1,3-thiazol-5-yl)phenyl]ethyl]pyrrolidine-2-carboxamide]: the greatest degradation seen (Dmax) lay within 80 to 100% and the DC50 was < 600 nM. `CCc1cccc2cc(O)cc(-c3ncc4c(N5CC6CCC(C5)N6)nc(OCCN5CCC(Oc6cc([C@@H](C(=O)N7C[C@H](O)C[C@H]7C(=O)N[C@@H](C)c7ccc(-c8scnc8C)cc7)C(C)C)on6)CC5)nc4c3F)c12` (relative stereo) [Compound 139, (2S,4R)-1-[(2R*)-2-{3-[(1-{2-[(4-{3,8-diazabicyclo[3.2.1]octan-3-yl}-7-(8-ethyl-3-hydroxynaphthalen-1-yl)-8-fluoropyrido[4,3-d]pyrimidin-2-yl)oxy]ethyl}piperidin-4-yl)oxy]-1,2-oxazol-5-yl}-3-methylbutanoyl]-4-hydroxy-N-[(1S)-1-[4-(4-methyl-1,3-thiazol-5-yl)phenyl]ethyl]pyrrolidine-2-carboxamide]: the Dmax was < 20% and the half-maximal degradation concentration (DC50) is 1000 to 3000 nM.

For the compound `CCc1cccc2cc(O)cc(-c3ncc4c(N5CC6CCC(C5)N6)nc(OCCN5CCC6(CC5)CN(c5cc([C@H](C(=O)N7C[C@H](O)C[C@H]7C(=O)N[C@@H](C)c7ccc(-c8ccnn8C)cc7)C(C)C)on5)C6)nc4c3F)c12` (relative stereo) [Compound 140, (2S,4R)-1-[(2R*)-2-[3-(7-{2-[(4-{3,8-diazabicyclo[3.2.1]octan-3-yl}-7-(8-ethyl-3-hydroxynaphthalen-1-yl)-8-fluoropyrido[4,3-d]pyrimidin-2-yl)oxy]ethyl}-2,7-diazaspiro[3.5]nonan-2-yl)-1,2-oxazol-5-yl]-3-methylbutanoyl]-4-hydroxy-N-[(1S)-1-[4-(1-methyl-1H-pyrazol-5-yl)phenyl]ethyl]pyrrolidine-2-carboxamide], the Dmax was in the range of 80 to 100% and the DC50 was < 600 nM. In the case of `CCc1cccc2cc(O)cc(-c3ncc4c(N5CC6CCC(C5)N6)nc(OCCN5CCC6(CC5)CN(c5cc([C@@H](C(=O)N7C[C@H](O)C[C@H]7C(=O)N[C@@H](C)c7ccc(-c8ccnn8C)cc7)C(C)C)on5)C6)nc4c3F)c12` (relative stereo) [Compound 141, (2S,4R)-1-[(2R*)-2-[3-(7-{2-[(4-{3,8-diazabicyclo[3.2.1]octan-3-yl}-7-(8-ethyl-3-hydroxynaphthalen-1-yl)-8-fluoropyrido[4,3-d]pyrimidin-2-yl)oxy]ethyl}-2,7-diazaspiro[3.5]nonan-2-yl)-1,2-oxazol-5-yl]-3-methylbutanoyl]-4-hydroxy-N-[(1S)-1-[4-(1-methyl-1H-pyrazol-5-yl)phenyl]ethyl]pyrrolidine-2-carboxamide], the Dmax fell in the range of 20 to 60% and the DC50 was 1000 to 3000 nM.

For `CCc1cccc2cc(O)cc(-c3ncc4c(N5CC6CCC(C5)N6)nc(OCCN5CCC(COc6cc([C@@H](C(=O)N7C[C@H](O)C[C@H]7C(=O)N[C@@H](C)c7ccc(-c8ccnn8C)cc7)C(C)C)on6)CC5)nc4c3F)c12` (relative stereo) [Compound 142, (2S,4R*)-1-[(2S)-2-{3-[(1-{2-[(4-{3,8-diazabicyclo[3.2.1]octan-3-yl}-7-(8-ethyl-3-hydroxynaphthalen-1-yl)-8-fluoropyrido[4,3-d]pyrimidin-2-yl)oxy]ethyl}piperidin-4-yl)methoxy]-1,2-oxazol-5-yl}-3-methylbutanoyl]-4-hydroxy-N-[(1S)-1-[4-(1-methyl-1H-pyrazol-5-yl)phenyl]ethyl]pyrrolidine-2-carboxamide], the 50% degradation concentration (DC50) is > 3000 nM. Consider `CCc1cccc2cc(O)cc(-c3ncc4c(N5CC6CCC(C5)N6)nc(OCCN5CCC(COc6cc([C@H](C(=O)N7C[C@H](O)C[C@H]7C(=O)N[C@@H](C)c7ccc(-c8ccnn8C)cc7)C(C)C)on6)CC5)nc4c3F)c12` (relative stereo) [Compound 143, (2S,4R)-1-[(2R*)-2-{3-[(1-{2-[(4-{3,8-diazabicyclo[3.2.1]octan-3-yl}-7-(8-ethyl-3-hydroxynaphthalen-1-yl)-8-fluoropyrido[4,3-d]pyrimidin-2-yl)oxy]ethyl}piperidin-4-yl)methoxy]-1,2-oxazol-5-yl}-3-methylbutanoyl]-4-hydroxy-N-[(1S)-1-[4-(1-methyl-1H-pyrazol-5-yl)phenyl]ethyl]pyrrolidine-2-carboxamide], for which the Dmax lay in the range of 80 to 100% and the DC50 was < 600 nM. Regarding `Cc1ncsc1-c1ccc([C@H](C)NC(=O)[C@@H]2C[C@@H](O)CN2C(=O)[C@@H](c2cc(N3CCN(C(=O)OC[C@@H]4CC[C@@]5(COc6nc(N7CC8CCC(C7)N8)c7cnc(-c8cc(O)cc(Cl)c8C(F)(F)F)c(F)c7n6)CCCN45)CC3)no2)C(C)C)cc1` (relative stereo) [Compound 257, [(3S,8R)-8-[[7-[3-chloro-5-hydroxy-2-(trifluoromethyl)phenyl]-4-(3,8-diazabicyclo[3.2.1]octan-3-yl)-8-fluoro-pyrido[4,3-d]pyrimidin-2-yl]oxymethyl]-1,2,3,5,6,7-hexahydropyrrolizin-3-yl]methyl 4-[5-[(1R)-1-[(2S,4R)-4-hydroxy-2-[[(1S)-1-[4-(4-methylthiazol-5-yl)phenyl]ethyl]carbamoyl]pyrrolidine-1-carbonyl]-2-methyl-propyl]isoxazol-3-yl]piperazine-1-carboxylate], the Dmax lay in the range of 80 to 100% and the DC50 was < 600 nM. For `Cc1ncsc1-c1ccc([C@H](C)NC(=O)[C@@H]2C[C@@H](O)CN2C(=O)[C@@H](c2cc(N3CCN(C(=O)OC[C@@H]4CC[C@@]5(COc6nc(N7CC8CCC(C7)N8)c7cnc(-c8cc(O)cc(Cl)c8C8CC8)c(F)c7n6)CCCN45)CC3)no2)C(C)C)cc1` (relative stereo) [Compound 258, [(3S,8R)-8-[[7-(3-chloro-2-cyclopropyl-5-hydroxy-phenyl)-4-(3,8-diazabicyclo[3.2.1]octan-3-yl)-8-fluoro-pyrido[4,3-d]pyrimidin-2-yl]oxymethyl]-1,2,3,5,6,7-hexahydropyrrolizin-3-yl]methyl 4-[5-[(1R)-1-[(2S,4R)-4-hydroxy-2-[[(1S)-1-[4-(4-methylthiazol-5-yl)phenyl]ethyl]carbamoyl]pyrrolidine-1-carbonyl]-2-methyl-propyl]isoxazol-3-yl]piperazine-1-carboxylate] the same measures were 80 to 100% and < 600 nM. For `Cc1ncsc1-c1ccc([C@H](C)NC(=O)[C@@H]2C[C@@H](O)CN2C(=O)[C@@H](c2cc(N3CCN(C(=O)OC[C@@H]4CC[C@@]5(COc6nc(N7CC8CCC(C7)N8)c7cnc(-c8cc(O)cc9cccc(Cl)c89)c(F)c7n6)CCCN45)CC3)no2)C(C)C)cc1` (relative stereo) [Compound 268, ((3S,7aR)-7a-(((4-((1R,5S)-3,8-diazabicyclo[3.2.1]octan-3-yl)-7-(8-chloro-3-hydroxynaphthalen-1-yl)-8-fluoropyrido[4,3-d]pyrimidin-2-yl)oxy)methyl)hexahydro-1H-pyrrolizin-3-yl)methyl 4-(5-((R)-1-((2S,4R)-4-hydroxy-2-(((S)-1-(4-(4-methylthiazol-5-yl)phenyl)ethyl)carbamoyl)pyrrolidin-1-yl)-3-methyl-1-oxobutan-2-yl)isoxazol-3-yl) piperazine-1-carboxylate] the same measures were 80 to 100% and < 600 nM. In the case of `Cc1ncsc1-c1ccc([C@H](C)NC(=O)[C@@H]2C[C@@H](O)CN2C(=O)[C@@H](c2cc(N3CCN(C(=O)OC[C@@H]4CC[C@@]5(COc6nc(N7CC8CCC(C7)N8)c7cnc(-c8cccc9ccc(F)c(F)c89)c(F)c7n6)CCCN45)CC3)no2)C(C)C)cc1` (relative stereo) [Compound 269, ((3S,7aR)-7a-(((4-((1R,5S)-3,8-diazabicyclo[3.2.1]octan-3-yl)-7-(7,8-difluoronaphthalen-1-yl)-8-fluoropyrido[4,3-d]pyrimidin-2-yl)oxy)methyl)hexahydro-1H-pyrrolizin-3-yl)methyl 4-(5-((R)-1-((2S,4R)-4-hydroxy-2-(((S)-1-(4-(4-methylthiazol-5-yl)phenyl)ethyl)carbamoyl)pyrrolidin-1-yl)-3-methyl-1-oxobutan-2-yl)isoxazol-3-yl) piperazine-1-carboxylate], the greatest degradation seen (Dmax) fell in the range of 60 to 80% and the DC50 is < 600 nM. For the compound `CCc1cccc2cc(O)cc(-c3ncc4c(N5CC6CCC(C5)N6)nc(OCCN5CCC(CN6CCN(c7cc([C@H](C(=O)N8C[C@H](O)C[C@H]8C(=O)N[C@@H](C)c8ccc(-c9scnc9C)cc8)C(C)C)on7)CC6)CC5)nc4c3F)c12` (relative stereo) [Compound 276], the Dmax fell in the range of 80 to 100% and the DC50 was < 600 nM.
